# Results: paper PMC8703466, “Unravelling the Interaction of Piperlongumine with the Nucleotide-Binding Domain of HSP70: A Spectroscopic and In Silico Study” (Pharmaceuticals, 2021)
# Molecular target: T1, nucleotide-binding domain of heat shock protein 70 (NBD/HSP70) (Homo sapiens, UniProt P0DMV8)
# T1 construct: gene HSPA1A
# Experiment: intrinsic Trp90 fluorescence quenching titration (steady-state, IDF/Hill fit), supported by time-resolved fluorescence; CD
# Conditions: read-out: intrinsic Trp90 fluorescence quenching titration (steady-state, IDF/Hill fit), s
# T1 sequence (P0DMV8 1-382 limits assumed): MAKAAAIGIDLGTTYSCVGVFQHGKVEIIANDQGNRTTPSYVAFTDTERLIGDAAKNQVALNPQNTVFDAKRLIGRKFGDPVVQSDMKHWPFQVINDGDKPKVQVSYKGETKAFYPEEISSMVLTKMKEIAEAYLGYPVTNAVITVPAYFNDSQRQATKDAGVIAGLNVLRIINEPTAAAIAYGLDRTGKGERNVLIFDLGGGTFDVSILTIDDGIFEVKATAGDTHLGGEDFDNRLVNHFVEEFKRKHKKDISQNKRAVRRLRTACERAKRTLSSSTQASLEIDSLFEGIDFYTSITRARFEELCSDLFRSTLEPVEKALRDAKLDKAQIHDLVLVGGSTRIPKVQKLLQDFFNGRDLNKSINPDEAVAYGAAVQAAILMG
structure (smiles),measurement,value
"COc1cc(/C=C/C(=O)N2CCC=CC2=O)cc(OC)c1OC [PPL, Piperlongumine]",Kd,15.9 µM
